{"source": "patent US20110251230A1", "about": "“THERAPEUTICS FOR NEUROLOGICAL DISORDERS” (UNIVERSITY OF SHEFFIELD, priority 2008, published 2011)", "key": {"[1]": {"system": "HO-1 and NQO-1 transcripts", "assay": "In vivo pharmacodynamics, QRT-PCR for HO-1 and NQO-1 in mice", "settings": "mouse"}, "[2]": {"system": "NRF2-ARE pathway in C6 cells", "assay": "ARE reporter assay in C6 astrocyte cell line", "format": "cell-based, rat", "from_the_text": "NRF2-ARE Inducing activity of the best hit compounds in neuronal and astrocytic cell lines was investigated. In order to determine whether the differences in protection in astrocytic and motor neuronal cell lines was due to differences in the degree of activation of the NRF2-ARE pathway in these cell types, the NRF2-ARE reporter construct was stably expressed in both the astrocytic (C6) and motor neuronal (NSC34) cell lines. The 17 best hit molecules were then screened in each cell line. We also screened the S [+] enantiomer of apomorphine as it can exist as either an R[−] or S[+] enantiomer. The […] enantiomer has dopamine agonist activity whereas the S[+] enantiomer has lost this activity and so we wanted to determine whether it retains NRF2-ARE inducing activity. In general activation of the NRF2-ARE pathway in the C6 cells was similar to that seen in the CHO cell line. […]."}, "[3]": {"system": "NQO1 and HO1 transcripts in primary mouse astrocytes from G93A mutant SOD1 transgenic mice", "assay": "Quantitative RT-PCR of NQO1 and HOX1 in G93A mutant SOD1 primary mouse astrocytes", "format": "cell-based", "method": "(§1) Quantitative RT-PCR. (Q-PCR) was performed using 25 ng of cDNA, 1× SYBR Green PCR Master Mix (Stratagene) and optimised concentrations of forward and reverse primers (Table 1), in a total volume of 20 μl and in triplicate for each sample. Following denaturation at 95° C. for 10 min, products were amplified by 40 cycles of 95° C. for 15 s and 60° C. for 1 min, on an MX3000P Real Time PCR System (Stratagene). To ensure amplification of a single product the dissociation curve was produced for each amplification. The relative levels of the genes of interest in the samples was determined by normalizing the level of expression to that of gapdh in each of the samples and by using the ddCt calculation (SYBR Green PCR mix and RT-PCR protocol, Applied Biosystems). Overall relative concentrations of the genes of interest were calculated following drug treatment by normalising the data to the cells grown in the vehicle (DMSO)."}, "[4]": {"settings": "mouse, in vivo, iv"}, "[5]": {"system": "Haem oxygenase 1 and NQO1 gene expression in C6 cells", "assay": "Multiplex/quantitative RT-PCR for NRF2 regulated genes in C6 cells", "format": "cell-based, rat", "method": "as §1"}, "[6]": {"system": "motor neurones (MN) in primary mouse astrocyte/MN co-cultures", "assay": "Menadione stress in primary mouse astrocyte/motor neurone co-cultures", "format": "cell-based", "method": "Mouse glial cultures were established from C57BI/6 cortices from 1-2 day old pups. Cortices were dissected out and cells dissociated by trituration following incubation in DNasel, collagenase and trypsin. The incubation and trituration steps were repeated to ensure complete dissociation of cells. Cells were plated at 45,000 cells/cm^2 in DMEM containing 10% FBS, 100 U/ml penicillin, and 100 μg/ml streptomycin. After 24 hours, cultures were washed in PBS and grown for 2-3 weeks until confluent, changing the medium once a week. Confluent glial cultures were enriched for astrocytes by shaking and mild trypsinisation. Enriched astrocytes were grown to confluency and plated onto coverslips coated with poly-D-ornithine (1.5 mg/ml; Sigma, Poole, UK) at 40,000 cells/cm^2, and grown for 1 week. […]\nWhen co-cultures were established for 2 weeks, neuroprotection assays were performed by 24 hrs exposure to drug or vehicle followed by a 6 hour 10 micromolar menadione oxidative stress or glutamate. […] Total MNs were counted by fluorescent microscopy in a 1.5 cm^2 area per coverslip. […] Both vehicle and drug treatments were counted before and after stress treatment, and results were statistically analysed by 2 way anova using Bonferroni post tests.\nThe co-cultures were then challenged for 6 hours with 10 μM menadione to induce oxidative stress and motor neurones stained and counted. […]"}, "[7]": {"system": "1321N1 (human) astrocytic line", "assay": "1321N1 oxidative stress assay (serum withdrawal, DCF)", "description": "(§2) A simple oxidative stress assay was used to determine whether preconditioning with NRF2-ARE inducing drugs could protect against a subsequent oxidative stress insult (serum withdrawal). The NSC34, C6 and 1321N1 cells were plated in 96 well tissue culture plates to achieve 30% confluency. […] Media was then replaced with serum free, phenol free media for 5 hrs. […] Cell survival assay was then performed on the cells as protection is measured as % reduction in DCF signal, therefore data points were excluded where a decrease in cell number was measured.\n(§3) Briefly methylthiazolyldiphenyl-tetrazolium bromide (MTT) was added to the cells and a blank well to a final concentration 0.5 mg/ml and incubated at 37° C. for 1-3 hrs depending on the cell line used."}, "[8]": {"system": "NRF2-ARE pathway in the CHO 4× ARE-TK cell line", "assay": "ARE reporter assay in CHO 4×ARE-TK-GFP cell line (GFP induction, EthD1 toxicity)", "method": "Chinese Hamster Ovary (CHO), NSC34 mouse motor neuronal cells, C6 (rat) and 1321N1 (human) astrocytic lines were routinely maintained in DMEM supplemented with 10% FBS and penicillin/streptomycin. […] These plasmids were transfected into CHO, C6 and 1321N1 cell lines using Lipofectamine 2000 (Invitrogen) and following 10-14 days of selection in 0.5 mg/ml G418 they were expanded and selected for basal eGFP expression using fluorescence activated cell sorting (BD, FACSAria) with two sequential cell sorts for each cell line. These mixed populations of stable transfectants with basal eGFP expression were used in subsequent assays and designated 4×ARE-TK-GFP for the ARE containing line and TK-GFP for the control cell line. […]\nConfluent cultures of 4×ARE-TK-GFP CHO or TK-GFP CHO expressing cells in 96 or 384-well tissue-culture plates were treated with drug (0.01-100 µM in triplicate) or vehicle (0.1-1% DMSO) in FCS-free DMEM in triplicate for 24 hours. The media was removed and replaced with the same volume of PBS containing 0.3 μM EthD1. […] Non-linear regression was used to fit a sigmoidal dose-response curve on a semi-Log plot to calculate the EC50 using GraphPad Prism (GraphPad Software). The reporter assay was conducted in a similar fashion in C6 and 1321N1 astrocyte cell lines stably transfected with the 4×ARE-TK-GFP and TK-GFP constructs except that Eth D1 was added directly in the media and read prior to washing the cells once and reading the […] signal. […]\nThe compounds were applied in triplicate to confluent cells in 96 well plates in serum free medium for 24 hours and the induction of GFP measured in a fluorescence plate reader. […]"}, "[9]": {"system": "C6 (rat) astrocytic line", "assay": "C6 oxidative stress assay (serum withdrawal, DCF)", "description": "as §2, §3"}, "[10]": {"system": "NSC34 mouse motor neuronal cells", "assay": "NSC34 oxidative stress assay (serum withdrawal, DCF)", "settings": "NSC34", "description": "as §2, §3"}, "[11]": {"system": "G93A mouse model of ALS", "settings": "higher doses, once a day, orally from 60 days of age; prior art; cited from earlier work"}, "[12]": {"system": "motor neuronal cell line expressing mutant (G93A) human SOD1", "settings": "prior art; cited from earlier work"}}, "note": "Read-outs that look alike come from different tables or passages of the source.", "data": [{"smiles": "CN1CCc2cccc3c2[C@H]1Cc1ccc(O)c(O)c1-3.Cl", "note": "(single isomer, unassigned) [S[+] apomorphine, S [+] apomorphine]", "values": [{"measurement": "induction of HO-1 and NQO-1 transcripts", "setting": "[1]", "result": "significant induction"}, {"measurement": "NRF2-ARE activation in C6 reporter cell line", "setting": "[2]", "result": "equally potent"}, {"measurement": "transcripts for NQO1 and HO1", "setting": "[3]", "result": "significant increase"}, {"measurement": "levels of the compound in plasma, brain and cerebral spinal fluid", "setting": "[4]", "result": "detected"}, {"measurement": "Haem oxygenase 1 and NQO1 gene expression", "setting": "[5]", "result": "statistically significant changes in gene expression"}, {"measurement": "reduction in motor neurone number after menadione", "setting": "[6]", "result": "not seen"}]}, {"smiles": "C=C1CC[C@@H]2[C@](C)(CO)[C@H](O)CC[C@@]2(C)[C@@H]1C/C=C1/C(=O)OC[C@H]1O", "note": "[Andrographolide]", "values": [{"measurement": "Lowest dose with toxicity", "setting": "[7]; 1321N1", "result": 10, "unit": "µM"}, {"measurement": "IC50", "setting": "[7]; 1321N1, 24 h pre-treatment, serum withdrawal, DCF", "result": 501, "unit": "nM"}, {"measurement": "transcripts for NQO1 and HO1", "setting": "[3]; G93A mutant SOD1 astrocytes, 24 hour pre-treatment, EC90 concentrations", "result": "significant increase"}, {"measurement": "Lowest dose with toxicity", "setting": "[8]; Chinese hamster, 24 h", "result": 100, "unit": "µM"}, {"measurement": "EC50", "setting": "[8]; Cricetulus griseus, 24 h, read-out: Average EC50, CHO 4×ARE-TK-GFP, GFP induction, 24 h", "result": 740, "unit": "nM"}, {"measurement": "maximal fold induction", "setting": "[8]; Cricetulus griseus, 24 h, read-out: Average fold GFP induction at maximal response", "result": 3.61}, {"measurement": "EC50", "setting": "[8]; Cricetulus griseus, CHO ARE reporter", "result": 740, "unit": "nM"}, {"measurement": "Lowest dose with toxicity", "setting": "[9]; C6", "result": 10, "unit": "µM"}, {"measurement": "IC50", "setting": "[9]; C6, 24 h pre-treatment, serum withdrawal, DCF", "result": 192, "unit": "nM"}, {"measurement": "Haem oxygenase 1 and NQO1 gene expression", "setting": "[5]; C6 cells, 24 h, EC50 and EC90 concentrations", "result": "statistically significant changes in gene expression"}, {"measurement": "Lowest dose with toxicity", "setting": "[10]", "result": 10, "unit": "µM"}, {"measurement": "reduction in motor neurone number after menadione", "setting": "[6]; 24 h pre-treatment, 6 hours 10 μM menadione, DMSO control approximately 25% reduction", "result": "not seen"}]}, {"smiles": "O=C(O[C@@H]1Cc2c(O)cc(O)cc2O[C@@H]1c1cc(O)c(O)c(O)c1)c1cc(O)c(O)c(O)c1", "note": "[EGCG, catechin-(−) epigallocatechin-3-gallate, reference compound]", "values": [{"measurement": "fluorescence in the control TK-GFP cell line", "setting": "[8]; control TK-GFP CHO cell line", "result": "No increase in fluorescence"}, {"measurement": "concentration of peak ARE activation (GFP expression)", "setting": "[8]; narrow window, 24 h, serum free medium", "result": 100, "unit": "µM"}, {"measurement": "survival", "setting": "[11]", "result": "significant extension in survival"}, {"measurement": "concentration giving partial protection from H2O2 induced cell death", "setting": "[12]", "result": "greater than 20 μM"}]}]}
